The structures appear in SMILES notation. Some results are limits rather than exact numbers.

The record followed here is patent US20250346574A1, “PYRIDINYL SUBSTITUTED OXOISOINDOLINE COMPOUNDS FOR THE TREATMENT OF CANCER” (Bristol-Myers Squibb Company, priority 2021, published 2025).

Helios, sequence (Q9UKS7 whole entry): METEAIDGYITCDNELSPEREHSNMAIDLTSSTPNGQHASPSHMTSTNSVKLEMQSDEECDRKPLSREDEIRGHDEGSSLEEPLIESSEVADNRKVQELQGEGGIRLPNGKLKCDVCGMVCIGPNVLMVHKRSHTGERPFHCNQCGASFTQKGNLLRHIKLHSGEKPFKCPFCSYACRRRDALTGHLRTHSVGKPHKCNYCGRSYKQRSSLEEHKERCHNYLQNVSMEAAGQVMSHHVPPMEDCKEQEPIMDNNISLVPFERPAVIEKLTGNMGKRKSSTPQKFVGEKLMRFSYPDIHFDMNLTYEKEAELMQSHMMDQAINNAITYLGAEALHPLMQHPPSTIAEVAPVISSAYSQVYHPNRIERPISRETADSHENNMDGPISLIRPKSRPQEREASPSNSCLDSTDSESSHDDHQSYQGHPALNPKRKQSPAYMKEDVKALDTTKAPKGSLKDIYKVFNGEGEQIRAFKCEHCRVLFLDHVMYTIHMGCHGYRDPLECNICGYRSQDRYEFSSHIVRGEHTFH
Helios, sequence (Q96SW2 whole entry): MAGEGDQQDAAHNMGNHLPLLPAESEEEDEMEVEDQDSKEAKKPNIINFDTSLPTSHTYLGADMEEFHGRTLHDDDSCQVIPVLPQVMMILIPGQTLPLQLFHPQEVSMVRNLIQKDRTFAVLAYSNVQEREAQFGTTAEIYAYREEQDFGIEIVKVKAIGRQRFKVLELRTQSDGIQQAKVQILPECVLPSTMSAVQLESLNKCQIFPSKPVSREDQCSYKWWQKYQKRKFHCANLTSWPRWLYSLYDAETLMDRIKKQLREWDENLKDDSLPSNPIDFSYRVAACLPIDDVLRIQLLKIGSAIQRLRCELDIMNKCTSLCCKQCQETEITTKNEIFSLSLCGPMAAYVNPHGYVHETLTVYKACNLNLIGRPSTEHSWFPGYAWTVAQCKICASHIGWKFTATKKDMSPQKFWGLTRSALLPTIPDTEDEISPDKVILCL
Helios, sequence (Q16531 whole entry partner): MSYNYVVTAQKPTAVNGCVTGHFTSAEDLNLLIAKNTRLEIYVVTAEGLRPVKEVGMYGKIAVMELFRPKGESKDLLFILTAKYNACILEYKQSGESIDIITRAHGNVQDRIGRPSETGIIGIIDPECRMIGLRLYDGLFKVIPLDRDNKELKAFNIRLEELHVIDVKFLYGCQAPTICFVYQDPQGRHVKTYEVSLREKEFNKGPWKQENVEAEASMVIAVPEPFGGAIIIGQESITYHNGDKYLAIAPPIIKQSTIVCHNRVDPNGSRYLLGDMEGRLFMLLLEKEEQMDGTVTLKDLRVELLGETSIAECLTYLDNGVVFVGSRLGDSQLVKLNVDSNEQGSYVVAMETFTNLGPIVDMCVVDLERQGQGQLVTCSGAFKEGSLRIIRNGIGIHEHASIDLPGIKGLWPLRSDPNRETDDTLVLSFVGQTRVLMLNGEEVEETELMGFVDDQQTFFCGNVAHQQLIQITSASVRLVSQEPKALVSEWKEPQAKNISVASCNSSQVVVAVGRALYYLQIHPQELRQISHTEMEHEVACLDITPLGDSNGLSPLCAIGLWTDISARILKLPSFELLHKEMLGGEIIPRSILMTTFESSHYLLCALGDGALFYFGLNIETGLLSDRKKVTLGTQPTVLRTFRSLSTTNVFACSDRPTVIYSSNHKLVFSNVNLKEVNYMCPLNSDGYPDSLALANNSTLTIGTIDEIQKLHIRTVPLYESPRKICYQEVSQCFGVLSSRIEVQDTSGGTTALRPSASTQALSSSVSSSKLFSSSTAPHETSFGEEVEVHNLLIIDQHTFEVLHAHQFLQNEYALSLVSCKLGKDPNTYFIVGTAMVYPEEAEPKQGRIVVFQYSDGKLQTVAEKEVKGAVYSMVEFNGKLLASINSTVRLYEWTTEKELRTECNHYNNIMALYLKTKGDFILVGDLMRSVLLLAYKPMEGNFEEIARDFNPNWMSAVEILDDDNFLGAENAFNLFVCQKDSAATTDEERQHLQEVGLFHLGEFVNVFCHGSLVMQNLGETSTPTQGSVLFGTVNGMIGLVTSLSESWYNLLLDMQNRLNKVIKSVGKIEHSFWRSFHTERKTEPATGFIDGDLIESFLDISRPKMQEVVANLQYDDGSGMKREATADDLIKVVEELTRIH

This assay concerns the target Helios (Homo sapiens, UniProt Q96SW2+Q9UKS7). Description: Helios Human T Regulatory Cells Degradation Assay. The assay is classed as cell-based. More on the design: fluorescently labelled antibodies against Helios in 1× Permeabilization buffer; endogenous in cells; host or cells: cryopreserved human T regulatory cells. Particulars: cryopreserved human T regulatory cells, incubated 20 hours, Helios-APC antibody staining, flow cytometry; read-out: hTreg Helios DC50. The essentials: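 Cryopreserved human Treg cells thawed in RPMI+10% FBS+20 ng/mL IL-2, rested 3 h, then incubated with compound 20 hours at 37° C, 5% CO2. Near-IR viability stain, permeabilization, flow cytometry read-out.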
On the technique in general: A flow cytometer gives signals particle by particle.
What is called DC50 is the midpoint of the concentration-degradation curve. As for `CC(=O)N1CC2(CCN(Cc3ccnc(-c4ccc5c(c4)CN(C4CCC(=O)NC4=O)C5=O)c3F)CC2)C1` (stereo not drawn) [Example 251, 3-(5-(4-((2-acetyl-2,7-diazaspiro[3.5]nonan-7-yl)methyl)-3-fluoropyridin-2-yl)-1-oxoisoindolin-2-yl)piperidine-2,6-dione], the half-maximal degradation concentration (DC50) was at least 10 µM.

As to `COC(=O)N1CC2(CCN(Cc3ccnc(-c4ccc5c(c4)CN(C4CCC(=O)NC4=O)C5=O)c3F)CC2)C1` (stereo not drawn) [Example 252, methyl 7-((2-(2-(2,6-dioxopiperidin-3-yl)-1-oxoisoindolin-5-yl)-3-fluoropyridin-4-yl)methyl)-2,7-diazaspiro[3.5]nonane-2-carboxylate], the half-maximal degradation concentration (DC50) was at least 10 µM.

For `O=C1CCC(N2Cc3cc(-c4nccc(CN5CCCC(F)(c6ccccc6)C5)c4F)ccc3C2=O)C(=O)N1` (stereo not drawn) [Example 253, 3-(5-(3-fluoro-4-((3-fluoro-3-phenylpiperidin-1-yl)methyl)pyridin-2-yl)-1-oxoisoindolin-2-yl)piperidine-2,6-dione], the DC50 was at least 10 µM.

Regarding `O=C1CCC(N2Cc3cc(-c4nccc(CN5CCc6[nH]ncc6C5)c4F)ccc3C2=O)C(=O)N1` (stereo not drawn) [Example 254, 3-(5-(3-fluoro-4-((1,4,6,7-tetrahydro-5H-pyrazolo[4,3-c]pyridin-5-yl)methyl)pyridin-2-yl)-1-oxoisoindolin-2-yl) piperidine-2,6-dione], the DC50 is at least 10 µM.

`CC1(O)CC2CN(Cc3ccnc(-c4ccc5c(c4)CN(C4CCC(=O)NC4=O)C5=O)c3F)CC2C1` (stereo not drawn) [Example 255, 3-(5-(3-fluoro-4-((5-hydroxy-5-methylhexahydrocyclopenta[c]pyrrol-2(1H)-yl)methyl)pyridin-2-yl)-1-oxoisoindolin-2-yl)piperidine-2,6-dione]: the DC50 turned out to be 0.492 µM.

On to `Cc1ccc(C)c(C2(O)CCN(Cc3ccnc(-c4ccc5c(c4)CN(C4CCC(=O)NC4=O)C5=O)c3F)C2)c1` (stereo not drawn) [Example 256, 3-(5-(4-((3-(2,5-dimethylphenyl)-3-hydroxypyrrolidin-1-yl)methyl)-3-fluoropyridin-2-yl)-1-oxoisoindolin-2-yl)piperidine-2,6-dione], for which the 50% degradation concentration (DC50) came to 1.14 µM.

For `O=C1CCC(N2Cc3cc(-c4nccc(CN5CCC(O)(c6ccccc6)C5)c4F)ccc3C2=O)C(=O)N1` (stereo not drawn) [Example 257, 3-(5-(3-fluoro-4-((3-hydroxy-3-phenylpyrrolidin-1-yl)methyl)pyridin-2-yl)-1-oxoisoindolin-2-yl)piperidine-2,6-dione], the DC50 is at least 10 µM.

For `O=C1CCC(N2Cc3cc(-c4nccc(CN5CC[C@@H](F)C5)c4F)ccc3C2=O)C(=O)N1` (stereo partly drawn) [Example 258, 3-(5-(3-fluoro-4-(((R)-3-fluoropyrrolidin-1-yl)methyl)pyridin-2-yl)-1-oxoisoindolin-2-yl)piperidine-2,6-dione], the DC50 was at least 10 µM.

As to `O=C1CCC(N2Cc3cc(-c4nccc(CN5CCc6oncc6C5)c4F)ccc3C2=O)C(=O)N1` (stereo not drawn) [Example 259, 3-(5-(4-((6,7-dihydroisoxazolo[4,5-c]pyridin-5(4H)-yl)methyl)-3-fluoropyridin-2-yl)-1-oxoisoindolin-2-yl)piperidine-2,6-dione], the DC50 is at least 10 µM.

`O=C1CCC(N2Cc3cc(-c4nccc(CN5CCC(F)CC5)c4F)ccc3C2=O)C(=O)N1` (stereo not drawn) [Example 260, 3-(5-(3-fluoro-4-((4-fluoropiperidin-1-yl)methyl)pyridin-2-yl)-1-oxoisoindolin-2-yl)piperidine-2,6-dione]: the DC50 came to 0.14 µM.

Consider `O=C1CCC(N2Cc3cc(-c4nccc(CN5CCC(F)(F)CC5)c4F)ccc3C2=O)C(=O)N1` (stereo not drawn) [Example 261, 3-(5-(4-((4,4-difluoropiperidin-1-yl)methyl)-3-fluoropyridin-2-yl)-1-oxoisoindolin-2-yl)piperidine-2,6-dione], for which the DC50 is at least 10 µM.

For `Cc1nnc2n1CCN(Cc1ccnc(-c3ccc4c(c3)CN(C3CCC(=O)NC3=O)C4=O)c1F)C2` (stereo not drawn) [Example 262, 3-(5-(3-fluoro-4-((3-methyl-5,6-dihydro-[1,2,4]triazolo[4,3-a]pyrazin-7(8H)-yl)methyl)pyridin-2-yl)-1-oxoisoindolin-2-yl)piperidine-2,6-dione], the DC50 is at least 10 µM.

With `O=C1CCC(N2Cc3cc(-c4nccc(CN5CCn6cnnc6C5)c4F)ccc3C2=O)C(=O)N1` (stereo not drawn) [Example 263, 3-(5-(4-((5,6-dihydro-[1,2,4]triazolo[4,3-a]pyrazin-7(8H)-yl)methyl)-3-fluoropyridin-2-yl)-1-oxoisoindolin-2-yl)piperidine-2,6-dione], the DC50 came out at 1.23 µM.

As to `Cc1c2c(nn1C)CCN(Cc1ccnc(-c3ccc4c(c3)CN(C3CCC(=O)NC3=O)C4=O)c1F)C2` (stereo not drawn) [Example 265, 3-(5-(4-((2,3-dimethyl-2,4,6,7-tetrahydro-5H-pyrazolo[4,3-c]pyridin-5-yl)methyl)-3-fluoropyridin-2-yl)-1-oxoisoindolin-2-yl)piperidine-2,6-dione], the DC50 is at least 10 µM.

Consider `O=C1CCC(N2Cc3cc(-c4nccc(CN5CCn6c(nnc6C(F)(F)F)C5)c4F)ccc3C2=O)C(=O)N1` (stereo not drawn) [Example 266, 3-(5-(3-fluoro-4-((3-(trifluoromethyl)-5,6-dihydro-[1,2,4]triazolo[4,3-a]pyrazin-7(8H)-yl)methyl)pyridin-2-yl)-1-oxoisoindolin-2-yl)piperidine-2,6-dione], for which the DC50 was at least 10 µM.

As to `O=C1CCC(N2Cc3cc(-c4nccc(CN5CCc6c(ccnc6Cl)C5)c4F)ccc3C2=O)C(=O)N1` (stereo not drawn) [Example 267, 3-(5-(4-((5-chloro-3,4-dihydro-2,6-naphthyridin-2(1H)-yl)methyl)-3-fluoropyridin-2-yl)-1-oxoisoindolin-2-yl)piperidine-2,6-dione], the DC50 is at least 10 µM.

Regarding `O=C1CCC(N2Cc3cc(-c4nccc(CN5CCc6cccc(Cl)c6C5)c4F)ccc3C2=O)C(=O)N1` (stereo not drawn) [Example 268, 3-(5-(4-((8-chloro-3,4-dihydroisoquinolin-2(1H)-yl)methyl)-3-fluoropyridin-2-yl)-1-oxoisoindolin-2-yl)piperidine-2,6-dione], the DC50 is at least 10 µM.

For the compound `CC(=O)N1CCCC12CCN(Cc1ccnc(-c3ccc4c(c3)CN(C3CCC(=O)NC3=O)C4=O)c1F)C2` (stereo not drawn) [Example 270, 3-(5-(4-((1-acetyl-1,7-diazaspiro[4.4]nonan-7-yl)methyl)-3-fluoropyridin-2-yl)-1-oxoisoindolin-2-yl)piperidine-2,6-dione], the 50% degradation concentration (DC50) was at least 10 µM.

Take `COC(=O)N1CCCC12CCN(Cc1ccnc(-c3ccc4c(c3)CN(C3CCC(=O)NC3=O)C4=O)c1F)C2` (stereo not drawn) [Example 271, methyl 7-((2-(2-(2,6-dioxopiperidin-3-yl)-1-oxoisoindolin-5-yl)-3-fluoropyridin-4-yl)methyl)-1,7-diazaspiro[4.4]nonane-1-carboxylate]: the DC50 was at least 10 µM.

In the case of `CC(=O)N1CCC2(CN(Cc3ccnc(-c4ccc5c(c4)CN(C4CCC(=O)NC4=O)C5=O)c3F)C2)C1` (stereo not drawn) [Example 272, 3-(5-(4-((6-acetyl-2,6-diazaspiro[3.4]octan-2-yl)methyl)-3-fluoropyridin-2-yl)-1-oxoisoindolin-2-yl)piperidine-2,6-dione], the DC50 was determined as 0.28 µM.

Regarding `COC(=O)N1CCC2(CN(Cc3ccnc(-c4ccc5c(c4)CN(C4CCC(=O)NC4=O)C5=O)c3F)C2)C1` (stereo not drawn) [Example 273, methyl 2-((2-(2-(2,6-dioxopiperidin-3-yl)-1-oxoisoindolin-5-yl)-3-fluoropyridin-4-yl)methyl)-2,6-diazaspiro[3.4]octane-6-carboxylate], the DC50 stood at 0.28 µM.
